Laboratory results as given in patent publication US12036243B2, “BCMA CAR-T cells with enhanced activities” (Allogene Therapeutics, Inc., priority 2020, dated 2024).

Assays:
[1] = tested on: BCMA CAR T cells with or without the CACCR
Protocol: We tested in an in vitro cell killing assay the effect of 150 nM dasatinib on the activities of the BCMA CAR T cells with or without the CACCR.

[2] = tested on: BCMA CAR T cells with or without the CACCR; assay: Rituximab complement-dependent cytotoxicity assay; type: cell-based; conditions: both types of BCMA CAR T cells
Source text: (§1) To minimize any potential safety concerns in clinical development, the BCMA CAR construct was designed to incorporate two rituximab mimotopes, which would sensitize the BCMA CAR T cells to rituximab-mediated depletion. We next tested the effects of rituximab on the BCMA CAR T cells with or without the CACCR.

[3] = tested on: BCMA CAR T cells with or without the CACCR; assay: Rituximab NK cell-mediated antibody-dependent cellular cytotoxicity assay; type: cell-based; conditions: both types of BCMA CAR T cells
Source text: as §1

[4] = tested on: BCMA CAR T cells, with or without the CACCR; assay: Rituximab-mediated CAR T cell depletion in vivo (MM.1S-Luc-GFP-bearing mice); parameters: species or system NSG mice
Protocol: Next, we tested the effect of rituximab on decreasing BCMA CAR T cells, with or without the CACCR, in vivo. […] Rituximab (10 mg/kg) or PBS vehicle control was dosed intraperitoneally starting on the day of CAR T cell dosing and then daily for 4 additional days (n=9 or 10 per group).

| Compound | cytotoxicity of BCMA CAR T cells [1] | viable CAR T cells [2] | viable CAR T cells [3] | tumor burden following rituximab-mediated CAR T cell depletion ([4]; rituximab 10 mg/kg i.p.) | CAR T cell counts in peripheral blood ([4]; rituximab 10 mg/kg i.p. daily for 5 days, 7 days post-CAR T cell dosing) |
| --- | --- | --- | --- | --- | --- |
| Cc1nc(Nc2ncc(C(=O)Nc3c(C)cccc3Cl)s2)cc(N2CCN(CCO)CC2)n1 [dasatinib] | abolished the cytotoxicity | – | – | – | – |
| rituximab | – | significantly decreased viable CAR T cells in a dose-responsive manner | significantly decreased viable CAR T cells in a dose-responsive manner | compromised anti-tumor efficacy | efficient and complete elimination of both CAR T cells |
